In patent publication US20180273538A1, “PYRROLO[2,3-d]PYRIMIDINE DERIVATIVES, A PROCESS FOR THEIR PREPARATION AND PHARMACEUTICAL COMPOSITIONS CONTAINING THEM” (LES LABORATOIRES SERVIER, priority 2015, published 2018) one finds IC50 data, which are given here for 26 compounds.

The assay has as its target T1, His-TEV-DYRK1A Kinase domain (aa127-485) (Homo sapiens, UniProt Q13627).
T1 construct: His-TEV-DYRK1A Kinase domain (aa127-485); His (N); TEV cleavage site (N)
Kind of assay: Kinase ADP assay (ADP Hunter Plus). In kind it is biochemical.
As to `Cc1nc(N2CCCC2C(F)(F)F)c2c(-c3ccnc(N)c3)c[nH]c2n1` (centres unmarked) [Example 107, 4-{2-methyl-4-[2-(trifluoromethyl)pyrrolidin-1-yl]-7H-pyrrolo[2,3-d]pyrimidin-5-yl}pyridin-2-amine], the IC50 worked out at 0.666 µM.
Then `Cc1nc(N2CC3(CCCCC3)C2)c2c(-c3ccnc(N)c3)c[nH]c2n1` [Example 109, 4-[4-(2-azaspiro[3.5]non-2-yl)-2-methyl-7H-pyrrolo[2,3-d]pyrimidin-5-yl]pyridin-2-amine], with 0.524 µM.
As to `Cc1nc(N2CC[C@H]3CCCC[C@H]3C2)c2c(-c3ccnc(N)c3)c[nH]c2n1` [Example 110], the IC50 came out at 0.048 µM.
Then `Cc1nc(N2CC[C@H]3CCCC[C@@H]3C2)c2c(-c3ccnc(N)c3)c[nH]c2n1` [Example 111, 4-{2-methyl-4-[(4aR,8aS)-octahydro-isoquinolin-2(1H)-yl]-7H-pyrrolo[2,3-d]pyrimidin-5-yl}pyridin-2-amine], with 0.013 µM; and `Cc1nc(NCC2COc3ccccc32)c2c(-c3ccnc(N)c3)c[nH]c2n1` (centres unmarked) [Example 112, 5-(2-aminopyridin-4-yl)-N-(2,3-dihydro-1-benzofuran-3-ylmethyl)-2-methyl-7H-pyrrolo[2,3-d]pyrimidin-4-amine], with 0.234 µM.
The figure for `COc1cccnc1C(C)Nc1nc(C)nc2[nH]cc(-c3ccnc(N)c3)c12` (centres unmarked) [Example 113, 5-(2-aminopyridin-4-yl)-N-[1-(3-methoxypyridin-2-yl)ethyl]-2-methyl-7H-pyrrolo[2,3-d]pyrimidin-4-amine] is 0.114 µM; for `Cc1nc(N[C@@H]2CCc3ccccc32)c2c(-c3cc(N)nc(N)c3)c[nH]c2n1` [Example 118, 4-{4-[(1R)-2,3-dihydro-1H-inden-1-ylamino]-2-methyl-7H-pyrrolo[2,3-d]pyrimidin-5-yl}pyridine-2,6-diamine] it is 0.011 µM; for `Cc1nc(N(C)Cc2c(F)cccc2F)c2c(-c3ccnc(N)c3)c[nH]c2n1` [Example 120, 5-(2-aminopyridin-4-yl)-N-(2,6-diflurobenzyl)-N,2-dimethyl-7H-pyrrolo[2,3-d]pyrimidin-4-amine] it is 0.115 µM.
The figure for `CCC(Nc1nc(C)nc2[nH]cc(-c3ccnc(N)c3)c12)c1ncccc1F` (centres unmarked) [Example 121, 5-(2-aminopyridin-4-yl)-N-[1-(3-fluoropyridin-2-yl)propyl]-2-methyl-7H-pyrrolo[2,3-d]pyrimidin-4-amine] is 0.066 µM.
With `Cc1nc(N[C@@H](C)c2ncccc2F)c2c(-c3ccnc(N)c3)c[nH]c2n1` [Example 122, 5-(2-aminopyridin-4-yl)-N-[(1S)-1-(3-fluoropyridin-2-yl)ethyl]-2-methyl-7H-pyrrolo[2,3-d]pyrimidin-4-amine], the IC50 was 0.05 µM.
For `Cc1nc(NCCc2ccccn2)c2c(-c3ccnc(N)c3)c[nH]c2n1` [Example 124, 5-(2-aminopyridin-4-yl)-2-methyl-N-[2-(pyridin-2-yl)ethyl]-7H-pyrrolo[2,3-d]pyrimidin-4-amine], the IC50 was 0.296 µM.
Take `Cc1nc(N2C[C@@H](C)O[C@@H](C)C2)c2c(-c3cc(N)nc(N)c3)c[nH]c2n1` [Example 126, 4-{4-[(2R,6S)-2,6-dimethylmorpholin-4-yl]-2-methyl-7H-pyrrolo[2,3-d]pyrimidin-5-yl}pyridine-2,6-diamine + 4-{4-[(2S,6R)-2,6-dimethylmorpholin-4-yl]-2-methyl-7H-pyrrolo[2,3-d]pyrimidin-5-yl}pyridine-2,6-diamine]: the IC50 was found to be 0.418 µM.
In the case of `Cc1nc(Nc2ccccc2)c2c(-c3ccnc(N)c3)c[nH]c2n1` [Example 129, 5-(2-aminopyridin-4-yl)-2-methyl-N-phenyl-7H-pyrrolo[2,3-d]pyrimidin-4-amine], the IC50 stood at 0.072 µM.
On to `Cc1nc(Nc2ccccc2C(F)(F)F)c2c(-c3ccnc(N)c3)c[nH]c2n1` [Example 130, 5-(2-aminopyridin-4-yl)-2-methyl-N-[2-(trifluoromethyl)phenyl]-7H-pyrrolo[2,3-d]pyrimidin-4-amine], for which the IC50 stood at 0.26 µM.
As for `Cc1nc(Nc2ccccc2C(F)(F)F)c2c(-c3cc(N)nc(N)c3)c[nH]c2n1` [Example 131, 4-(2-methyl-4-{[2-(trifluoromethyl)phenyl]amino}-7H-pyrrolo[2,3-d]pyrimidin-5-yl)pyridine-2,6-diamine], the IC50 amounted to 0.6 µM.
Turning to `COC1CCN(c2nc(C)nc3[nH]cc(-c4ccnc(N)c4)c23)CC1` [Example 133, 4-[4-(4-methoxypiperidin-1-yl)-2-methyl-7H-pyrrolo[2,3-d]pyrimidin-5-yl]pyridin-2-amine], the IC50 amounted to 0.269 µM.
The figure for `Cc1nc(N2CCOCC2)c2c(-c3ccnc(N)c3)c[nH]c2n1` [Example 134, 4-[2-methyl-4-(morpholin-4-yl)-7H-pyrrolo[2,3-d]pyrimidin-5-yl]pyridin-2-amine] is 0.848 µM; for `Cc1nc(N2CCn3ccnc3C2)c2c(-c3ccnc(N)c3)c[nH]c2n1` [Example 135, 4-[4-(5,6-dihydroimidazo[1,2-a]pyrazin-7(8H)-yl)-2-methyl-7H-pyrrolo[2,3-d]pyrimidin-5-yl]pyridin-2-amine] it is 0.091 µM.
On to `Cc1nc(N2CCc3nccnc3C2)c2c(-c3ccnc(N)c3)c[nH]c2n1` [Example 136, 4-[4-(7,8-dihydropyrido[3,4-b]pyrazin-6(5H)-yl)-2-methyl-7H-pyrrolo[2,3-d]primidin-5-yl]pyridin-2-amine], for which the IC50 was determined as 0.169 µM.
On to `Cc1nc(N2CCOC(C)C2)c2c(-c3ccnc(N)c3)c[nH]c2n1` (centres unmarked) [Example 137, 4-[2-methyl-4-(2-methylmorpholin-4-yl)-7H-pyrrolo[2,3-d]pyrimidin-5-yl]pyridin-2-amine], for which the IC50 was determined as 0.336 µM.
The figure for `COC1CCCN(c2nc(C)nc3[nH]cc(-c4ccnc(N)c4)c23)C1` (centres unmarked) [Example 138, 4-[4-(3-methoxypiperidin-1-yl)-2-methyl-7H-pyrrolo[2,3-d]pyrimidin-5-yl]pyridin-2-amine] is 0.407 µM; for `COC1CCN(c2nc(C)nc3[nH]cc(-c4cc(N)nc(N)c4)c23)CC1` [Example 139, 4-[4-(4-methoxypiperidin-1-yl)-2-methyl-7H-pyrrolo[2,3-d]pyrimidin-5-yl]pyridine-2,6-diamine] it is 0.883 µM; for `Cc1nc(N2CCOCC2)c2c(-c3cc(N)nc(N)c3)c[nH]c2n1` [Example 140, 4-[2-methyl-4-(morpholin-4-yl)-7H-pyrrolo[2,3-d]pyrimidin-5-yl]pyridine-2,6-diamine] it is 1.22 µM.
With `Cc1nc(N2CCn3ccnc3C2)c2c(-c3cc(N)nc(N)c3)c[nH]c2n1` [Example 141, 4-[4-(5,6-dihydroimidazo[1,2-a]pyrazin-7(8H)-yl)-2-methyl-7H-pyrrolo[2,3-d]pyrimidin-5-yl]pyridine-2,6-diamine], the IC50 turned out to be 0.417 µM.
As for `Cc1nc(N2CCc3nccnc3C2)c2c(-c3cc(N)nc(N)c3)c[nH]c2n1` [Example 142, 4-[4-(7,8-dihydropyrido[3,4-b]pyrazin-6(5H)-yl)-2-methyl-7H-pyrrolo[2,3-d]pyrimidin-5-yl]pyridine-2,6-diamine], the IC50 amounted to 0.512 µM.
Then `Cc1nc(N2CCOC(C)C2)c2c(-c3cc(N)nc(N)c3)c[nH]c2n1` (centres unmarked) [Example 143, 4-[2-methyl-4-(2-methylmorpholin-4-yl)-7H-pyrrolo[2,3-d]pyrimidin-5-yl]pyridine-2,6-diamine], with 1.06 µM.

Broadly, the IC50 is the concentration that gives 50% inhibition.
